| Compound | melting point |
| --- | --- |
| Cc1cc(SCc2cc(-c3ccc(Cl)cc3)on2)ccc1OCC(=O)O | 79 to 80 °C |
| C=CC(C)Nc1c(-c2c(F)cc(F)cc2F)c(Cl)nc2ncnn12 (stereo unspecified) | 101 °C |
| COc1cc(Nc2nccc(Nc3ccc(CC(=O)O)cc3)n2)cc(OC)c1OC | 144 to 150 °C |
| CC(C)(COCC(C)(C)c1ccc(O)cc1)c1ccc(O)cc1 | 69.2 to 70 °C |
| O=C(/C=C/C(=O)c1ccc(Cl)cc1)c1ccc(Cl)cc1 | 174 to 176 °C |
| NC(=O)N1C(=O)C(=C(OC(=O)C=CC(=O)OCCCCc2ccccc2)c2cccs2)c2cc(F)c(Cl)cc21 | 159 to 161 °C |
| O=C(c1ccccc1)c1ccc(-c2nc(COc3ccc(CCCn4ccnc4)cc3)co2)cc1 | 112 to 113 °C |
| O=[N+]([O-])c1c(O)ccnc1O | > 230 °C |
| O=C(O)c1cccc(-c2cc(-c3ccc(C(F)(F)F)cc3)on2)c1 | 276 to 277 °C |
| Cc1noc(-c2ncn3c2[C@@H]2CCCN2C(=O)c2c-3ccc(F)c2Cl)n1 | 245 to 246 °C |
| COc1cc(C(OC)OC)cc([N+](=O)[O-])c1O | 58 to 59 °C |
| CC(CC(O)(C(=O)Nc1ccc2c(c1)COC2=O)C(F)(F)F)c1ccccc1 (stereo unspecified) | 166 to 168 °C |
| O=C1c2cccc(SCCCCCCO)c2C(=O)c2cccc(SCCCCCCO)c21 | 195 to 196 °C |
| CCOCc1nc2c(N)nc3ccccc3c2n1CCCC(=O)N(C)OC | 163 to 165 °C |
| Clc1ccc(CN2CC=C(/C=C/c3ccccc3)CC2)cc1Cl | 123 to 125 °C |
| CCCCC1OC(=O)c2cc(NC(N)=S)ccc21 (stereo unspecified) | 183 to 185 °C |
| O=C(O)CCc1ccc(C=CC(=O)c2ccccc2)cc1 | 159 to 160 °C |
| CC(C)(C)C1=CC=CC(c2ccccc2Cl)(C(C)(C)C)C1O (stereo unspecified) | 89.5 to 91 °C |
| CC(C)(C)OC(=O)[C@H]1CC[C@H](c2ccccc2)N1C(=O)CNC(=O)Nc1cccc(C(=O)O)c1 (racemic) | 236 °C |
| CC(C)n1nc(-c2sc(C(=O)NC3CC3)nc2-c2cccc(Cl)c2)ccc1=O | 118 to 120 °C |
| Cc1nc2cccc(OC3CCN(C(=O)C(C)C)CC3)c2c(N)c1C(=O)O | 184 to 186 °C |
| O=C(Cn1ccnc1)c1ccc(-c2ccccc2)cc1 | 198 °C |
| COc1ccc(C)cc1-c1ccc(S(=O)(=O)N2c3ccccc3CC2C(=O)NCc2ccc(C(=O)O)cc2)cc1 (stereo unspecified) | 153 to 165 °C |
| COc1ccc2c(c1)c1cc(-c3cc(F)cc(F)c3)c(=O)n(C)c1n2C | 189 °C |

| Compound | melting point |
| --- | --- |
| CC(C)(C)c1cc(C(=O)Nc2ccc(N)cc2)cc(C(C)(C)C)c1O | 220 to 221 °C |
| CN(C)Cc1c[nH]c2c(C(=O)c3ccccc3)cccc12 | 111 to 114 °C |
| CC(C)=CCOC(C)C1CCC2=C3C=CC4C(C)(C)C(OC(=O)CCC(=O)O)CCC4(C)C3CCC21C (stereo unspecified) | 96 to 99 °C |
| CCOc1cc2c(cc1OCC)CCC(C(=O)N1CCN(C(=O)c3cc(OC)c(OC)c(OC)c3)CC1)=C2 | 127 to 129 °C |
| Cc1cc(C(=O)NN)ccc1Br | 164 to 166 °C |
| O=C(NC(=O)c1c(F)cccc1F)Nc1ccc(C(F)(F)F)cc1F | 197 °C |
| CCOc1ccc2c(c1)n(C1CCCCC1)c(=O)n2Cc1ccc(N)cc1OC | 191 °C |
| Cc1cc(Nc2ccnc(Nc3ccc(S(=O)(=O)N(C)C4CCN(Cc5nccs5)CC4)cc3)n2)ccc1F | 176 to 177 °C |
| COc1ccc(-c2ccc(OC(C)CC(C)Oc3ccc(-c4ccc(OC)cc4)cc3)cc2)cc1 (stereo unspecified) | 164 °C |
| Nc1nc2ncn(O)c2c(=O)[nH]1 | > 300 °C |
| COc1cc(-c2nn(C)c(C(F)(F)F)c2Br)c(F)cc1N | 85 to 86 °C |
| CCOC(=O)c1c(C)nc(Cl)c([N+](=O)[O-])c1NCCCN(C)C | 20 °C |
| CN1CC(CCCl)Sc2ncccc2C1=O (stereo unspecified) | 97 to 100 °C |
| CN(C)C(=O)c1ccc(-c2ccc3nnn(Cc4ccc5ncccc5c4)c3n2)cc1F | 163 to 165 °C |
| CCc1cc2c(cc1CC)C(=O)CCC2 | 93 °C |
| CCOC(=O)c1cn(CC)c2ncncc2c1=O | 136 °C |
| CCN(C(=O)C(C)CSC(c1ccccc1)(c1ccccc1)c1ccccc1)c1cn(-c2cccnc2)nc1Cl (stereo unspecified) | 64 to 66 °C |
| Cc1ccc2ccc(N3C(=O)c4ccccc4C3CC(=O)CCC(C)C)nc2n1 (stereo unspecified) | 155 °C |
| O=C1c2ccccc2C(=O)c2sc(-c3ccc(Cl)o3)nc21 | 258 °C |
| CC(C)(C)OC(=O)N1CCC(OCc2ccccc2)C1CC(O)Cn1cnc2ccncc2c1=O (stereo unspecified) | 221 °C |
| COc1ccc2c(c1)C=Cn1c(nnc1S(C)=O)C2 (stereo unspecified) | 241 to 242 °C |
| COc1ccc2cc([C@H](C)C(=O)OCCCN3C(=O)OC[C@H]3C(C)(C)SN=O)ccc2c1 | 116 to 117 °C |
| COc1cc(O)c2c(=O)c(OC)c(-c3ccc(O)c(OC)c3)oc2c1 | 171 to 173 °C |
| CCOP(=O)(OCC)C(C)CNC(=O)CCl (stereo unspecified) | 93 to 95 °C |

| Compound | melting point |
| --- | --- |
| CC12CCC(O)CC1=CCC1C2CCC2(C)C(=NC3CC3)CCC12 (stereo unspecified) | 187 °C |
| c1ccc2c(c1)CNc1ccccc1O2 | 74 to 76 °C |
| Cc1cc(-c2cc(C(F)(F)F)n3ncc(-c4cccnc4)c3n2)ccc1C(F)(F)F | 177 °C |
| CCCCc1nn(-c2cc(NC(=O)CC)ccc2Cl)c(=O)n1Cc1ccc(-c2ccccc2S(=O)(=O)NC(=O)c2ccccc2Cl)cc1F | > 152 °C |
| COc1ccc2ncc([N+](=O)[O-])c(Cl)c2c1 | 281 to 283 °C |
| O=C1CN(C(=O)OCC2c3ccccc3-c3ccccc32)CC(=O)O1 | 180 to 185 °C |
| O=C1c2c(O)ccc(O)c2C(=O)c2c(NCCNCCO)ccc(O)c21 | 196 to 198 °C |
| O=C(NCCO)/C(=C/c1ccc(OC(F)(F)F)cc1)NC(=O)c1ccc(Oc2ccc(C(F)(F)F)cc2)cc1 | 84 to 86 °C |
| Cn1ncc(N2CCCCC2)c(-c2ccccc2C=NO)c1=O | 184 to 185 °C |
| CC(C)Nc1cccnc1N1CCN(C(=O)c2ccc(C(=O)N(C)CC3OCCO3)cc2)CC1 | 102 to 104 °C |
| CSC1=NC2C=C(C(=O)NCC3CC3)C(NC(=O)c3cc(C(F)(F)F)nn3-c3ncccc3Cl)=C(Cl)C2S1 (stereo unspecified) | 221 to 223 °C |
| CCOCCCOc1ccc(-c2ccc3c(c2)C=C(C(=O)OC)CCN3S(C)(=O)=O)cc1 | 127 to 129 °C |
| CN1CCC(OC2c3cccc(OCc4ccccc4)c3CCn3cc(-c4ccccc4)nc32)CC1 (stereo unspecified) | 68 °C |
| N#Cc1cc([N+](=O)[O-])ccc1NC(=O)C(F)(OC(F)(F)C(F)(F)C(F)(F)F)C(F)(F)F (stereo unspecified) | 96 °C |
| CCC(CC)CNC(=O)c1ccc2c(c1)N(C(C)CN1CCCC1)c1ccccc1S2 (racemic) | 115 °C |
| CC(NC(=O)c1sc2ccc(C(F)(F)F)cc2c1O)=C(c1ccccc1)c1ccccc1 | 155 to 160 °C |
| COc1ccc(C(=O)Cc2c(Cl)cncc2Cl)c2c1OC(c1ccccc1)(c1ccccc1)O2 | 156 to 157 °C |
| O=C(CCl)c1ccc2c(c1)Nc1ccccc1S2 | 190 to 191 °C |
| NCCCn1cc(-c2cc3nccnc3[nH]2)c2ccccc21 | 170 °C |
| COc1cccc(-c2nc(-c3ccccc3COC(=O)c3ccccc3)n[nH]2)c1 | 128 to 130 °C |
| Cc1cc(C)n(-c2nc(Nc3ccc(Cl)cc3)cnc2CN)n1 | 173 to 176 °C |
| O=C1CCN(Cc2cccnc2)CC1C(c1ccccc1)c1ccccc1 (stereo unspecified) | 121 to 122 °C |
| COC(=O)c1ccc2nc(C(F)(F)F)c(S(C)(=O)=O)nc2c1 | 143 to 144 °C |
| C=Cn1cc(C(=O)O)c(=O)c2cc(F)c(N3CCC(N)C3)nc21 (stereo unspecified) | 253 to 257 °C |

| Compound | melting point |
| --- | --- |
| CCCc1c(OCCCOc2ccc(C(=O)CCC(=O)O)cc2F)ccc(C(C)=O)c1O | 142 to 144 °C |
| CC12CCC(O)CC1CCC1C2CCC2(C)C(C(O)CO)CCC12 (stereo unspecified) | 210 to 212 °C |
| O=C1c2ccc(O)cc2C(=O)N1c1ccccc1 | 116 to 118 °C |
| NC1CCCN(C(=O)c2ccc(NC(=O)c3ccccc3Cl)cc2)c2ccccc21 (stereo unspecified) | 176 to 178 °C |
| CCOCCn1c(CN2CCN(CC#N)CC2)nc2cccnc21 | 80.7 °C |
| CC(=O)C1CCC2C3CCC4CC(O)C(N5CC(C)(C)OC(C)(C)C5)CC4(C)C3C(=O)CC12C (stereo unspecified) | 212 to 215 °C |
| Cc1nc(C(=O)NC23CC4CC(CC(C4)C2)C3)cn1-c1ccccc1 | 207 to 210 °C |
| Nc1sc(-c2cccnc2)c(CN(C2CCCCC2)C2CCCCC2)c1C(=O)c1ccc(Cl)cc1 | 168 to 170 °C |
| Cn1cc(-c2cc(-c3cnc4[nH]ccc4c3)ccn2)n(-c2cccc(C#N)c2)c1=O | 265 °C |
| Cc1nc(C(=O)NCCO[N+](=O)[O-])cs1 | 78 to 79 °C |
| CCCn1c(=O)c2[nH]c(C34CCC(C)(C(=O)O3)C4(C)C)nc2n(CCC)c1=O (stereo unspecified) | 200 to 201 °C |
| O=C(OCc1ccccn1)c1cccc(-n2cnc3cc(-c4ccccc4)ccc32)c1 | 149 to 150 °C |
| COc1cc(OC)nc(Cc2ccccc2NC(=O)OC(C)(C)C)n1 | 98 to 100 °C |
| COC(=O)CCC(=O)Nc1cc(Cl)ccc1C(=O)OC | 80 to 84 °C |
| O=C(Nc1ccc(-n2nc(C(F)(F)F)cc2C(F)(F)F)cc1)c1ccc(C(F)(F)F)cc1C(F)(F)F | 200 to 201 °C |
| CC(=Cc1ccc(-c2noc3cc(Cl)ccc23)cc1)[N+](=O)[O-] | 160 to 162 °C |
| Cc1ccc(-c2cc(C(O)C#Cc3ccc(C(=O)O)cc3)cc3c2C(C)(C)CCC3(C)C)cc1 (stereo unspecified) | 180 °C |
| COc1ccccc1N1CCN(CCOc2ccc(-c3cn4ccccc4n3)cc2)CC1 | 151 to 153 °C |
| COc1cc(Nc2nccc(NCc3ccccc3)n2)cc(OC)c1OC | 135 to 136 °C |
| COc1cccc(CC(=O)O)c1OCCCCc1cn(-c2ccc(C(F)(F)F)cn2)nc1C(C)C | 144 to 145 °C |
| Cc1nccn1-c1cc(C#N)cc(C(F)(F)F)c1 | 132 to 134 °C |
| O=C1C(=C2C=Cc3ccccc3C2)CCCC1=C1C=Cc2ccccc2C1 | 176 °C |
| COC12C=CC(CC1)CC2C(=O)O (stereo unspecified) | 77 to 81 °C |
| O=[N+]([O-])c1ccc(F)cc1Br | 42 °C |
